Measured values as given in patent publication US8318490B2, “Prelamin A pre peptide as a universal stem cell differentiation signal” (The Regents of the University of Colorado, a Body Corporate, priority 2006, dated 2012).
Ends that are not written are not given here.

Legend:
[1] = system: adult rabbit cardiac myocytes; test: Peptide treatment of adult rabbit cardiac myocytes; type: cell-based; conditions: differentiated cells
[2] = system: H9c2 rat cardiac myoblasts; test: Prelamin A pre peptide treatment of H9c2 cardiac myoblasts, desmin immunostaining; type: cell-based
Protocol: (§1) Cells and transfections. C2C12 and H9C2 cells were cultured in Growth Media (GM) defined as DMEM containing 10% (vol/vol) fetal bovine serum supplemented with Lglutamine, HEPES, non-essential amino acids and antibiotics. Effectene (Qiagen) was used to transfect plasmid DNA into cells following the manufacturer's instructions. Nondifferentiating transfected cells were allowed to continue growing for an additional 24 h before being processed for microscopy, or until confluent for protein isolation.
(§2) Microscopy. Cells were fixed in cold 70% methanol/30% acetone solution for 10 min. Immunostaining was performed with anti-human lamin A/C (Novocastra), anti-prelamin A (Santa Cruz), or anti-desmin (Sigma) primary antibodies followed by the appropriate fluorescently labeled secondary antibody and mounting in anti-fade media containing DAPI (Vector Laboratories). Images were captured on an Olympus IX81 inverted microscope with Olympus objectives (U PLAN APO 10× oil N.A. 0.40, UAPO 40× oil N.A. 1.35, TIRFM PLAN APO 60× oil N.A. 1.45 WD 0.15 mm) and a Hamamatsu ORCA IIER monochromatic CCD camera and Intelligent Imaging Slidebook software. Images were also acquired on an Olympus IX70 Infinity inverted microscope with Olympus objectives (100× U PLAN APO, N.A. 1.35, W.D. 0.1 mm, oil; 20× U PLAN Fluorite, N.A. 0.5) with a Photometrics Quantix cooled CCD camera using Deltavision software. Signal strengths for the individual channels were adjusted using Adobe Photoshop strictly for improving the overall signal to noise ratio.
These cells were previously considered to be of cardiac lineage in part because they express heart-specific L-type calcium channels after prolonged exposure to retinoic acid during serum starvation induced differentiation (24). However, differentiation of H9c2 cells in culture has previously led to fusion and multinucleate myotube formation more resembling skeletal myotubes than cardiac myocytes.
Higher order intra- and intercellular organization is clearly evident in visible striations in the desmin staining pattern. […]

[3] = system: H9c2 cells; test: Western blots of peptide-treated H9c2 cells; type: cell-based, rat; conditions: Western blot
Protocol: Western blots. Cells were lysed in cell buffer (1% Triton X-100, 20 mM Tris-Cl, 7.5, 10 mM NaCl, 5 mM MgC2) containing 46 μg/ml leupeptin, 10 μg/ml aprotinin, and 250 μg/ml AE-BSF for 10 min on ice. Total protein concentration was determined using BioRad Protein Assay reagent and equal amounts of total protein were loaded in each lane. Western blots were probed with anti-lamin A/C (Novocastra, Santa Cruz), antiprelamin A (Santa Cruz) and anti-myogenin (Santa Cruz) primary antibodies and HRP-conjugated secondary antibodies (Santa Cruz, Pierce). Secondary antibody detection was performed using Super signal HRP (Pierce).
Higher order intra- and intercellular organization is clearly evident in visible striations in the desmin staining pattern. […] As in serum starvation induced differentiation of H9c2 myoblasts (26), an increase in the myogenic transcription factor myogenin is seen upon peptide treatment (FIG. 5F).

[4] = system: Mouse neural stem cells; test: Peptide treatment of mouse neural stem cells, lamin A/C, tubulin, DAPI staining; type: cell-based; conditions: two days
Protocol: Mouse neural stem cells were treated with the prelamin A peptide for two days (FIGS. 18D-18F) and were then fixed, immunostained for lamin A/C expression (FIGS. 18A and 18D) and tubulin expression (FIGS. 18B and 18E), and stained for DNA with DAPI (FIGS. 18C and 18F). […] Tubulin expression in untreated cells is cytoplasmic and relatively diffuse, and tubulin is excluded from the cell nucleus. In peptide-treated cells a distinct filamentous tubulin staining pattern is seen initiating at the cell nucleus and extending into the cell body.

[5] = system: neuroblastoma; test: Peptide application to neuroblastoma cells (data not shown); type: cell-based
[6] = system: ES cells; test: Peptide treatment of embryonic stem cells, staining for tubulin, pre peptide, DAPI; type: cell-based; conditions: 1 μg/ml, 6 hours
Description: ES cells were contacted with the prelamin A pre peptide (courtesy of Dr. Chris Hogan, University of Colorado).
FIGS. 14A-14C show a 10× control. The ES cells have round distinct nuclei and are expressing tubulin. The prelamin A signal is primarily in extracellular aggregates, though nuclear staining can also be detected.

[7] = system: Mouse F9 embryonic carcinoma cells; test: Peptide treatment of F9 embryonic carcinoma cells, lamin A/C, keratin 8, DAPI staining; type: cell-based; conditions: two days
Protocol: Mouse F9 embryonic carcinoma cells were treated with the prelamin A peptide for two days (FIGS. 19D-19F) and then were fixed, immunostained for lamin A/C expression (FIGS. 19A and 19D) and keratin 8 expression (FIGS. 19B and 19E), and stained for DNA with DAPI (FIGS. 19C and 19F). Keratin 8 and lamin A/C co-localize in all cells. […] Both keratin 8 and lamin A/C display distinct perinuclear filamentous staining, with greater expression towards the center of cell colonies than the periphery, in untreated F9 cells. […] The treated cells display a DNA morphology consistent with expansion of DNA into […]. Furthermore, cells at the edges of the treated colonies display altered cell morphology and are extending away from the colony, and intercellular spacing in the treated cell colonies has clearly been expanded.

[8] = system: C2C12 myoblasts; test: Prelamin A pre peptide treatment of mitotically dividing C2C12 myoblasts, microscopy/immunostaining; type: cell-based, mouse
Protocol: as §1
Peptide synthesis. The farnesylated and carboxymethylated prelamin A C-terminal peptide N-LLGNSSPRTQSPQNC-C (SEQ ID NO:2) was generated by FMOC solid phase peptide synthesis, and farnesylated and carboxymethylated (Biosynthesis). The peptide was analyzed on a C4 column and by laser desorption mass spectrometry. The lyophilized peptide was resuspended in DMSO.
as §2
The farnesylated and carboxymethylated prelamin A pre peptide was chemically synthesized, and mitotically dividing C2C12 myoblasts were treated with the peptide at 1, 10 and 25 μg/ml in complete growth media containing 10% FBS.

[9] = system: fibroblasts; test: Peptide exposure of homogeneous fibroblast cultures; type: cell-based
[10] = system: neonatal rat cardiac myocytes (NRMCs); test: Peptide treatment of neonatal rat cardiac myocytes (NRMCs); type: cell-based
Description: Consequently, the prelamin A pre peptide not only determines tissue organization amongst the same type of cells, but also intracellular organization between different cell and tissue types.

[11] = system: NIH3T3-L1 preadipocytes; test: Chicken prelamin A peptide treatment of preadipocytes, oil red O staining; type: cell-based; conditions: 72 hours
Description: Based on the change in morphology and the oil red 0 staining, the chicken peptide induces the differentiation of NIH3T3-L1 cells into adipocytes.

[12] = system: C2C12 cells; test: Chicken prelamin A peptide treatment of proliferating C2C12 cells, desmin immunostaining; type: cell-based, mouse; conditions: 40 ug/ml
Protocol: The chicken homologue of the human prelamin A peptide (SEQ ID NO: 17) was chemically synthesized and farnesylated and carboxymethylated. The lyophilized peptide was dissolved at 10 mg/ml in 50% DMSO/50% water. Actively proliferating C2C12 cells were treated with the chicken prelamin A peptide at 40 ug/ml on plastic chamber slides in complete DMEM media containing 10% fetal bovine serum (FBS). After 20 hours the cells were fixed in methanol/acetone and then immunostained with a rabbit anti-desmin primary antibody and a Texas Red conjugated anti-rabbit secondary antibody. Cover slips were mounted with media containing DAPI.

N-LLGNSSPRTQSPQNC-C (not fully specified (residue 15); also: farnesylated, carboxymethylated; listed as Homo sapiens) [prelamin A pre peptide, farnesylated and carboxymethylated prelamin A C-terminal peptide (human, 15 amino acids), made by FMOC solid phase peptide synthesis]
cytoskeletal effect [1]: cytoskeletal rearrangements were induced and there was a dissolution of the actin cytoskeleton
tissue formation ([2]; after 48 hours): formed a tissue sheet of mono- and binucleated cells interconnected by an extensive ECM
time to extracellular matrix formation ([2]; cardiac myoblasts contacted with peptide): ≤ 5 min
extracellular matrix secretion ([2]; within six hours, growth media containing 10% FBS): secrete an extensive desmin extracellular matrix (ECM)
lamin A/C expression [3]: modest increases
myogenin expression [3]: increase
prelamin A expression [3]: modest increases
cell appearance [4]: taken on the appearance of nerve cells, including glial cells
cell morphology and tubulin expression [4]: induced changes in cell morphology and tubulin expression
cell proliferation [4]: inhibited cell proliferation
effect on neuroblastoma cells [5]: arrest and aggregation
DNA morphology [6]: changed drastically
secretion of pre peptide [6]: extensive secretion of the pre peptide
tubulin expression [6]: no longer any tubulin expression
cell and DNA morphology, intercellular organization, lamin A/C and keratin 8 expression [7]: induces changes in cell morphology, DNA morphology, intercellular organization, and lamin A/C and keratin 8 expression
cell proliferation [7]: severely inhibits cell proliferation
cell morphogenesis ([8]; 1 μg/ml, six hours, complete growth media containing 10% FBS): cells have undergone morphogenesis into a bipolar configuration
desmin localization ([8]; 1 μg/ml, six hours, growth media 10% FBS): desmin can be seen localizing to the interface with the nuclear lamina and forming a filamentous skeleton at the locations where cells interact
desmin expression ([8]; 6 hours after peptide exposure): desmin expression is either upregulated or redistributed
prelamin A matrix formation ([8]; 6 hours after peptide exposure): prelamin A forms intra- and intercellular matrices
cell fusion ([8]; 6 hours of peptide treatment): cell fusion can be seen
cell fusion / tissue formation ([8]; 72 hours, depending on cell density): the cells have fused to form either sheets or myotubes
time to induction of differentiation after contact with the peptide ([8]; absence of conventional differentiation factors or cell confluence): within minutes
fusion of closely spaced myoblasts and cell death ([8]; closely spaced myoblasts): induces fusion of closely spaced myoblasts into a syncicium which eventually results in cell death
effect of higher peptide concentrations ([8]; higher concentrations of the peptide): cell fusion and myotube formations
concentrations inducing myoblast differentiation ([8]; in vitro): micromolar and even nanomolar concentrations
ECM excretion ([8]; low concentrations of the peptide): excrete ECM
effect on cell proliferation ([8]; peptide at 1, 10 and 25 μg/ml): dose-dependant effect on cell proliferation
polarization of nuclei ([8]; peptide at 1, 10 and 25 μg/ml): induces the kidney-shaped polarization of nuclei
effect of lower peptide concentrations ([8]; topical exposure, lower peptide concentrations): differentiation and morphogenesis representing a number of different cell types, and to intercellular interactions and tissue formation
structural effect on fibroblasts [9]: underwent structural reorganization
cell fusion ([10]; 10 ug/ml, six hours): a number of cells can be seen to have fused
cell morphology ([10]; 10 ug/ml, six hours): show an elongated morphology
morphogenesis and fusion ([10]; 25 ug/ml, 18 hours): more extensive myocytes morphogenesis and fusion is observed
fusion into myosheets ([10]; 72 hours of exposure): fused into beating myosheets
effect on fibroblasts and interaction between cell types ([10]; fibroblasts adjacent to NRMCs, tubulin and actin staining): induces the differentiation of fibroblasts and fusion/cross-talk between different cell types

VLGGAGPRRQAPAPQGC (listed as Gallus gallus) [chicken prelamin A peptide, chicken homologue of the human prelamin A peptide, chemically synthesized]
differentiation [11]: differentiated into adipocytes
oil red O staining [11]: stained positively with oil red 0
cytoskeleton ([12]; 20 hours, desmin staining): cytoskeleton formation
cell cycle ([12]; within 20 hours, DMEM 10% FBS): induced cell cycle arrest
morphogenesis and fusion ([12]; within 20 hours, DMEM 10% FBS): myoblast morphogenesis and fusion
